SMILES | melting point [°C]
CC(C)/[N+]([O-])=C/c1ccc(O)cc1 | 217 to 218
CCNC(=O)c1ccc(-c2cnc3c(c2)N(Cc2ccccc2)C(=O)CN3)cc1 | 195
Cn1ccc2c(C(=O)c3ccccc3O)cccc21 | 80
Cc1ccc(NC(=O)c2cccc(N(C)C)c2)cc1Nc1ncc(-c2cccnc2)o1 | 228
COC(=O)NC1CCc2c(ccc(OC)c2OC)C1 (configuration not stated) | 109 to 111
CC(C)(CNc1ccc(C2=NNC(=O)CC2)cc1)NCC(O)COc1ccccc1C#N (configuration not stated) | 126 to 128
CCCc1c(CCC(=O)O)cnn1Cc1ccc(OCc2nc(-c3ccccc3)oc2C)cc1 | 158 to 159
Cc1ccccc1CC[C@H]([C@H](C)O)n1cnc(C(N)=O)c1 | 60 to 62
CC(C)(C)c1ccc2c(c1)Cc1cc(C(C)(C)C)ccc1-2 | 120 to 121
CCCCc1nc2cccc(C)c2c(=O)n1C1CCC(=O)NC1=O (configuration not stated) | 190 to 192
CCCC(C)(C)c1cc(C=O)cc(C(C)(C)CCC)c1O | 90 to 92
CCCCCCCCCCCCCCN=C=O | 100 to 104
CN(c1cccc2cc(C3=NCC(CC(=O)N4CCC[C@H]4C(=O)O)S3)[nH]c12)S(=O)(=O)c1ccccc1C(F)(F)F (some centres not stated) | 132 to 135
CC(C)c1nc(CCO)n(C)c1Sc1cc(Cl)cc(Cl)c1 | 177 to 178
OC[C@H](O)CN1CCC[C@@H](Nc2nccc(-c3c(-c4cccc(O)c4)nc4sccn34)n2)C1 | 185 to 187
C=CC(=O)CC1CN=C(c2cc3cccc(N(C)S(=O)(=O)c4cccs4)c3[nH]2)S1 (configuration not stated) | 157 to 158
CCOC(=O)CN1CC(=O)N(C)c2ccc(NC(=O)NCc3ccccc3)cc2C1=O | 151
O=C(N[C@@H](Cc1ccccc1)C(=O)COC(=O)N1CCC[C@H]1C(=O)O)c1ccccc1 | 55 to 65
CCOC(=O)c1nccc(NC=O)n1 | 205 to 206
CN1CC[C@@H]2CC(=O)c3cc4c(cc3[C@@H]2C1)OCO4 (relative stereo) | > 250
O=C1Nc2ccccc2C1=Cc1cccs1 | 208 to 210
Nc1nc2c(ncn2COCCOCCO)c(=O)[nH]1 | 184 to 187
COCc1cnc2c(NC(=O)c3ccccc3C(F)(F)F)cccc2c1N1CCN(C)C1=O | 156
CCSc1cc(C)nc(SCC)c1NC(=O)CCCSc1nc2c(C)c(Cl)cc(C(C)C)c2o1 | 122 to 123

SMILES | melting point [°C]
CC(O)c1ccc(CNC(=O)c2cccnc2Oc2cccnc2)s1 (configuration not stated) | 92 to 94
COc1cc(OC)c2c(c1)OCC(CNCCCOc1cccc(N)c1)O2 (configuration not stated) | 123 to 128
CC(CO)N1CCN(c2cccc3c2OCCO3)CC1 (configuration not stated) | 91 to 92
CCOC(=O)c1cccc2nc(CNC)n(Cc3ccc(-c4ccccc4-c4nnn[nH]4)cc3)c12 | 248 to 250
C#CC(C)(C)c1cc(NC(=O)NC)no1 | 99 to 100
O=C1C[C@@H](O)C[C@H](/C=C/c2c(Cl)cc(Cl)cc2Oc2ccccc2)O1 (relative stereo) | 124 to 126
CCCCC1(CCCC)N[C@@H](c2nc(-c3ccccc3)c[nH]2)Cc2c1sc1ccccc21 | 198 to 200
CCCCONC(=O)c1nc(-c2ccc(Cl)c(OC)c2F)cc(N)c1Cl | 130 to 132
CCCn1c(=O)c2[nH]c(-c3cc(C)n(CC(=O)Nc4ccc(Cl)c(Cl)c4)n3)nc2n(CCC)c1=O | 298
Nn1cnc2cc(C(F)(F)F)ccc21 | 140 to 142
CCOC(=O)C1=C(NC(=O)Nc2ccc(Cl)c(C(=O)OCC)c2)CCC1 | 110 to 112
CC(C)c1nn(-c2c(Cl)cc(C(F)(F)F)cc2Cl)c(Cl)c1-c1nc(C#N)c(C#N)[nH]1 | 96 to 99
C=CCN(CC=C)c1nc(NC2CC(C)(C)NC(C)(C)C2)nc(NC(C)(C)CC(C)(C)C)n1 | 180
COc1ccc(C)c2nc(Cc3ccc(Cl)cc3)[nH]c12 | 195 to 197
CC(C)C(=NO)c1ccc(Cl)cc1 | 91 to 117
CON=Cc1cc(NC(=O)N2CCOCN2)c(Cl)cc1Cl | 205 to 208
CCCCCc1noc(-c2ccc(N3CCN(C(=O)c4ccccc4C(F)(F)F)CC3)nn2)n1 | 164
CC(C)c1ccc(C(=O)CCl)cc1S(N)(=O)=O | 141
Cc1ccccc1N1CCc2c(C)nc3c(O)cccc3c21 | 144 to 146
O=C(c1ccccc1)c1ccc(NC(=O)C(O)(C(F)(F)F)C(F)(F)F)cc1 | 143 to 146
COc1ccc(NC(=O)c2ccccc2F)c(C(C)=O)c1OC | 106 to 108
CC(NCC(O)CP(=O)(O)CC1CCCCC1)c1ccc(Cl)c(Cl)c1 (configuration not stated) | 173 to 178
COc1cc(CCO[Si](C)(C)C(C)(C)C)c(C2=CC3CCC2N3C(=O)OC(C)(C)C)cn1 (configuration not stated) | 75 to 76
COC(=O)CN(c1cc2cc(OC)c(=O)oc2cc1OCc1ccccc1)S(N)(=O)=O | 178 to 179

SMILES | melting point [°C]
CC(O)c1coc2cc(NS(C)(=O)=O)c(Oc3ccccc3)cc2c1=O (configuration not stated) | 136 to 138
COc1ccc(OC)c(CNC(=O)n2cc(F)c(=O)[nH]c2=O)c1 | 185
O=C(c1ccccc1)c1ccc2nc(CS(=O)c3ccccn3)[nH]c2c1 (configuration not stated) | 142 to 145
C=CCOc1ccc(S(=O)(=O)c2ccc(C)nc2Nc2c(C)cc(C)cc2C)cc1 | 138 to 140
Cn1cncc1C(O)(c1ccc(Cl)cc1)c1ccc2[nH]c(=O)cc(-c3cccnc3)c2c1 (configuration not stated) | > 250
Cc1c(SCCSCCn2c([N+](=O)[O-])cnc2C)ccnc1CNc1cnc2ccccc2c1 | 152 to 154
O=C1NC(=O)C(=Cc2ccc(OC3CCN(c4ccccn4)CC3)cc2)S1 | 218 to 220
COC(=S)c1cc(N)cc(N)c1C | 102 to 104
O=C(O)CCc1ccc(C=CC(=O)c2ccccc2)cc1 | 159 to 160
Nc1cc(Cl)cc(Cl)c1C(=O)NCc1cccc(F)c1 | 79 to 81
Nc1cccc(C(F)(F)F)c1CCl | 155 to 161
COc1ccc(-c2cccc(C(=O)NN)c2)cc1OC1CCCC1 | 167 to 168
CCOC(=O)/C=C/c1cc(OC)c(O)c2c(CC)cccc12 | 75 to 76
CCOC(=O)/C(=N\O[C@H]1CC[C@H](Cl)CC1)c1csc(N)n1 | 155
CC(=O)N[C@@H](C)COC1CCN(c2nc3cc(OCC4CCC4)ccc3o2)CC1 | 109 to 110
CC(=O)Nc1cc(C2=NNC(=O)NC2C)ccc1Cl (configuration not stated) | 251 to 253
COCCOC(=O)NC(=O)CCCCCN=C=O | 77
CCCCCCC1(Br)CC(=CNc2ccccc2)OC1=O (configuration not stated) | 147 to 148
CN1C(=O)C2(COc3cc4c(cc32)OCCO4)c2c(C(=O)NCc3ccccn3)cccc21 (configuration not stated) | 214 to 215
NC(=O)c1ccc2[nH]cc(CCCCN3CC=C(c4ccccc4)CC3)c2c1 | 200 to 205
COC(=O)c1sc(-c2ccccc2)c(O)c1O | 143 to 144
CC(C)OCCNC(=O)c1cccc(-c2cccc3cc(Cc4cc(F)cc(Cl)c4)sc23)c1 | 84 to 85
CCN(CC)S(=O)(=O)c1nc2ccc([N+](=O)[O-])cc2n1CC | 90 to 91
CSC(Nc1ccc2c(c1)OCO2)=C(C#N)S(C)(=O)=O | 168 to 170

— a melting point compilation (Tetko et al.; mined from patent text by program, amines drawn as free bases though some values may be those of a salt)
